According to article PMC13192270, “RhlR quorum-sensing receptor ligand sensitivity regulates the differential expression of phenazine genes in Pseudomonas aeruginosa” (Journal of Bacteriology, 2026):

Assays:
[1] = system: pyocyanin production; settings: cited from earlier work
[2] = target: T1, RhlR T58L in ΔrhlI strain (Pseudomonas aeruginosa, UniProt P54292, T58L); assay: ChIP-seq of RhlR-binding sites; format: cell-based; settings: 2 µM C4HSL
T1 construct: expressed in transfected cells; host or cells: P. aeruginosa UCBPP-PA14 ΔrhlI, mutant allele placed on the chromosome at the native rhlR locus
T1 sequence (P54292 1-241 T58L): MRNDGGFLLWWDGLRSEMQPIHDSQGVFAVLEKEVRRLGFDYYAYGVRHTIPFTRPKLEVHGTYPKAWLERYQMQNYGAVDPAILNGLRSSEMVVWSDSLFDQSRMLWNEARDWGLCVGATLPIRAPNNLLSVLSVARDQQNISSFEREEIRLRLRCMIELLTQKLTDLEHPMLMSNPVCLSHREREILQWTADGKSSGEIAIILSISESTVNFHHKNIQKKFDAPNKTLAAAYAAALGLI
Description: To determine the molecular basis for lower levels of phz gene expression in a background that expressed a hypersensitive variant of RhlR, we assessed expression of the pqsABCDE operon ([51]). PqsE is required for optimal expression of the phz genes and, thus, pyocyanin production. RhlR was previously characterized as a repressor of the pqsABCDE operon. We hypothesized that a C4HSL hypersensitive variant would repress pqsABCDE expression, which could lead to the observed decrease in phz gene expression. Indeed, pqsA RNA levels were 20% lower in a strain expressing RhlR T58L compared to WT RhlR (Fig. 6A; Table 2). To confirm that the decrease in gene expression led to a decrease in the available PqsE protein that was capable of interacting with RhlR to specifically drive it to the phz promoter, we performed western blot analyses to measure PqsE protein levels in strains expressing RhlR variants (Fig. 7A). […] Thus, we hypothesized that when PqsE levels fall below a certain concentration, PqsE homodimerization cannot occur, thereby preventing PqsE-RhlR complex formation and reducing promoter occupancy. […] We highlight phzA1 and phzM, which share a promoter (Fig. S10A), rhlA (Fig. S10B), and lecB (Fig. S10C) because of the role of the phz and rhlA promoters in regulating pyocyanin and rhamnolipid production (Fig. 5) and because lecB is a well-characterized PqsE-dependent promoter ([37]). As expected, RhlR T58L had lower promoter occupancy than WT RhlR at the phzA1 promoter, likely due to the lower levels of PqsE present (Fig. 7B; Fig. S10A). Conversely, RhlR occupancy at the rhlA promoter was nearly unchanged from WT RhlR (Fig. 7B; Fig. S10B), reflecting the ability of RhlR to bind the promoter primarily through its dependency on C4HSL.
P. aeruginosa strains were grown overnight, back diluted 1:100 in fresh LB media, and grown to an OD600 = 2.0. Crosslinking, lysis, and immunoprecipitation were performed as previously described ([37]).

CCCC(=O)N[C@H]1CCOC1=O [C4HSL, N-butyryl-L-homoserine lactone]
C4HSL concentration above which pyocyanin production is lost [1]: > 5 µM
C4HSL concentration below which pyocyanin production is lost [1]: < 500 nM
ChIP-seq enrichment at PA14_01490 (rahU) (peak 139,733) [2]: 1,262.3
ChIP-seq enrichment at PA14_06320 (peak 560,072) [2]: 896.4
ChIP-seq enrichment at PA14_10360 (peak 895,433) [2]: 513.5
ChIP-seq enrichment at PA14_16100*, PA14_16110 (peak 1,372,370) [2]: 1,439.9
ChIP-seq enrichment at PA14_18800 (peak 1,620,628) [2]: 405.8
ChIP-seq enrichment at PA14_18810 operon (peak 1,621,028) [2]: 87.2
ChIP-seq enrichment at PA14_20130, PA14_20140 (fpr) (peak 1,735,823) [2]: 380.5
ChIP-seq enrichment at PA14_21020 (azeB) operon, PA14_21030 (peak 1,816,906) [2]: 3,188.5
ChIP-seq enrichment at PA14_22090 (peak 1,921,598) [2]: 349.8
ChIP-seq enrichment at PA14_28250*, PA14_28260 (peak 2,444,398) [2]: 159.5
ChIP-seq enrichment at PA14_29620, fhp operon (peak 2,568,048) [2]: 2,263.3
ChIP-seq enrichment at PA14_30570, PA14_30580 (vqsR) (peak 2,647,472) [2]: 554.8
ChIP-seq enrichment at PA14_30840* (peak 2,677,542) [2]: 4,222.3
ChIP-seq enrichment at PA14_37745 operon (peak 3,364,761) [2]: 433.4
ChIP-seq enrichment at PA14_48140 operon (peak 4,285,523) [2]: 340.9
ChIP-seq enrichment at PA14_48530 operon (peak 4,313,855) [2]: 867.6
ChIP-seq enrichment at PA14_49310 (peak 4,382,169) [2]: 673.4
ChIP-seq enrichment at PA14_49740, PA14_49750 operon (peak 4,425,570) [2]: 2,142.3
ChIP-seq enrichment at PA14_57970*, PA14_57980 (peak 5,159,548) [2]: 228.8
ChIP-seq enrichment at PA14_59180* (peak 5,268,881) [2]: 216.4
ChIP-seq enrichment at PA_48530* (peak 4,314,560) [2]: 229
ChIP-seq enrichment at arcD operon (peak 6,093,032) [2]: 900.8
ChIP-seq enrichment at hcnA operon, exoY (peak 3,236,436) [2]: 1,543.7
ChIP-seq enrichment at hsiA2 operon, hcpD (peak 3,831,541) [2]: 1,100.7
ChIP-seq enrichment at lasA (peak 3,600,666) [2]: 211.7
ChIP-seq enrichment at lasB (peak 1,387,361) [2]: 347.7
ChIP-seq enrichment at lecB, PA14_20620 operon (peak 1,774,336) [2]: 13,604.8
ChIP-seq enrichment at pa1L (peak 2,721,761) [2]: 171.4
ChIP-seq enrichment at peak 5,414,219 [2]: 697
ChIP-seq enrichment at phzA1 operon, phzM (peak 813,529) [2]: 2,515.8
ChIP-seq enrichment at phzA2 operon (peak 3,561,969) [2]: 562.6
ChIP-seq enrichment at phzB1*, phzC1 (peak 812,427) [2]: 968.1
ChIP-seq enrichment at phzB2*, phzC2 (peak 3,561,157) [2]: 75.06
ChIP-seq enrichment at phzH (peak 64,211) [2]: 800.4
ChIP-seq enrichment at rhlA operon (peak 1,648,391) [2]: 3,584.5
ChIP-seq enrichment at rhlI (peak 1,651,804) [2]: 263.1
ChIP-seq enrichment at rmlB operon (peak 6,082,366) [2]: 2,634
ChIP-seq enrichment at rpsL operon (peak 754,615) [2]: 416.1
ChIP-seq enrichment at tnpS, tnpT operon (peak 3,188,223) [2]: 237.1
